The source of these data is US20240018166A1, “SULFONYL UREA NLRP3 INFLAMMASOME INHIBITORS” (Venatorx Pharmaceuticals, Inc., priority 2020, published 2024).

Holding throughout (format): cell-based
For one data set, the system named is IL-1β. Description: IL-1β inhibition assay (ELISA/HTRF of culture supernatants). The following applies: Homo sapiens, PMA-differentiated THP-1 cells, tested 10 μM to 0.003 μM. As for the experimental part:
Human monocyte-like THP-1 cells were grown in RPMI media supplemented with 10% FBS (growth media) at 37° C., 5% CO2. Cell cultures were passaged every three days and maintained at a density of 5×10^5 to 1×10^6 cells per mL.
Compounds were prepared as 10 mM stock solutions in 100% DMSO. […] Each 200× dilution was then diluted 20-fold in growth media (step down dilution) to yield a 10× final assay concentration range. All compounds were tested over a final assay concentration range of 10 μM to 0.003 μM.
The level of IL-10 in supernatants from PMA-differentiated THP-1 cells was determined by ELISA using either the R&D Systems Human IL-1 beta/IL-1F2 Quantikine ELISA or the cisbio HTRF human IL 1 beta kit. Manufacturer's protocols were followed without deviation.
Background values were subtracted and resulting values were converted to percentage of vehicle-treated controls. Data was analyzed via GraphPad Prism 7.0 using a non-linear regression (variable slope (four-parameter)) equation.
Table 2 provides IL-10 ELISA EC50 values for example compounds. A indicates EC50>10 μM; B indicates EC50 between 1 and 10 μM (inclusive); C indicates EC50<1 μM.
(An ELISA detects its analyte on a solid surface through an enzyme-linked reagent.)

Data set [1] in a line: MTT cell viability assay, HepG2 cells. The following applies: human, read-out: HepG2 Cytotoxicity CC50. As for the experimental part:
(§1) In order to assess the cytotoxicity of the compounds, an MTT cell viability assay was performed in either unstimulated THP-1 or HepG2 cells as follows. 5×10^4 THP-1 or 5×10^3 HepG2 cells were seeded into each well of a 96-well plate in 90 μL of media. Compounds were added to cells as described for the IL-10 assay and returned to the incubator for an additional 72 hours. Next, 25 μL of MTT solution (5 mg/mL in sterile PBS) was added to each well. Plates were incubated for 3 hours at 37° C., 5% CO2. Next, for THP-1 cells, 100 μl of MTT solubilization solution (40% Dimethylformamide, 2% glacial acetic acid, 16% sodium dodecyl sulfate) was then added to each well and plates were incubated at room temperature in the dark overnight. For HepG2 cells, media was aspirated, 50 μL of DMSO was added and plates were mixed briefly with an orbital plate shaker. Absorbance at 570 nm was measured using a Perkin-Elmer EnVision plate reader.
Absorbance values were converted to percentage of vehicle-treated controls. Data was then analyzed using a non-linear regression (variable slope (four-parameter)) equation in GraphPad Prism 7.0. […]

A short description of data set [2]: MTT cell viability assay, THP-1 cells. The note with it: human, unstimulated THP-1 cells, read-out: THP-1 Cytotoxicity CC50. As to the method: as §1
Absorbance values were converted to percentage of vehicle-treated controls. Data was then analyzed using a non-linear regression (variable slope (four-parameter)) equation in GraphPad Prism 7.0.
Table 2 provides THP-1 cytotoxicity assay CC50 values for example compounds. A indicates CC50>10 μM; B indicates CC50 between 1 and 10 μM (inclusive); C indicates CC50<1 μM. NT, not tested.
(In general: Tetrazolium dyes change colour on reduction, which living cells bring about.)

A value given as a limit tells only on which side of the number the result lay.

Take `CC(CB1OC(C)(C)C(C)(C)O1)c1coc(S(=O)(=O)NC(=O)Nc2c3c(cc4c2CCC4)CCC3)c1` (stereo not shown) [Example 58, N-((1,2,3,5,6,7-hexahydro-s-indacen-4-yl)carbamoyl)-4-(1-(4,4,5,5-tetramethyl-1,3,2-dioxaborolan-2-yl)propan-2-yl)furan-2-sulfonamide]: the EC50 (in general, the concentration at which the effect is half-maximal) in the data set with IL-1β is less than 1 µM. Further, the CC50 – broadly, the concentration that lowers cell viability or growth by half – at 72 h in data set [1] was more than 10 µM.
On the same counts, the results for `CC1(C)CCc2c1nc1c(c2NC(=O)NS(=O)(=O)c2ccn(CCCB(O)O)n2)CCC1` [Example 67, (3-(3-(N-((3,3-dimethyl-1,2,3,5,6,7-hexahydrodicyclopenta[b,e]pyridin-8-yl)carbamoyl)sulfamoyl)-1H-pyrazol-1-yl)propyl)boronic acid] are less than 1 µM and more than 10 µM.
In the data set with IL-1β, `O=C(Nc1c2c(cc3c1CCC3)CCC2)NS(=O)(=O)c1ccc2c(c1)C(O)OB2O` (stereo not shown) [Example 54, N-((1,2,3,5,6,7-hexahydro-s-indacen-4-yl)carbamoyl)-1,3-dihydroxy-1,3-dihydrobenzo[c][1,2]oxaborole-5-sulfonamide] had an EC50 of more than 10 µM. Besides, the CC50 at 72 h in data set [2] and in data set [1] was more than 10 µM throughout.
Compound `CC1(C)OB(CCCC2(S(=O)(=O)NC(=O)Nc3c4c(cc5c3CCC5)CCC4)CC2)OC1(C)C` [Example 70, N-((1,2,3,5,6,7-hexahydro-s-indacen-4-yl)carbamoyl)-1-(3-(4,4,5,5-tetramethyl-1,3,2-dioxaborolan-2-yl)propyl)cyclopropane-1-sulfonamide] displayed a 50% effective concentration (EC50) with IL-1β of 1 to 10 µM. Also, the CC50 at 72 h in data set [1] is more than 10 µM.
As for `CC1(C)OB(O)c2ccc(S(=O)(=O)NC(=O)Nc3c4c(cc5c3CCC5)CCC4)cc21` [Example 57, N-((1,2,3,5,6,7-hexahydro-s-indacen-4-yl)carbamoyl)-1-hydroxy-3,3-dimethyl-1,3-dihydrobenzo[c][1,2]oxaborole-5-sulfonamide], the EC50 with IL-1β was in the range of 1 to 10 µM. Besides, the CC50 at 72 h in data set [2] and in data set [1] was more than 10 µM each time.
Consider `CC(C)c1cc(C#N)c(F)c(C(C)C)c1NC(=O)NS(=O)(=O)c1ccn(CCCB(O)O)n1` [Example 68, (3-(3-(N-((4-cyano-3-fluoro-2,6-diisopropylphenyl)carbamoyl)sulfamoyl)-1H-pyrazol-1-yl)propyl)boronic acid], for which the 50% effective concentration (EC50) in the data set on IL-1β was less than 1 µM. Also, the CC50 at 72 h in data set [1] was more than 10 µM.
On the same counts, the results for `CC(C)(Cn1ccc(S(=O)(=O)NC(=O)Nc2c3c(cc4c2CCC4)CCC3)n1)B1OC(C)(C)C(C)(C)O1` [Example 66, N-((1,2,3,5,6,7-hexahydro-s-indacen-4-yl)carbamoyl)-1-(2-methyl-2-(4,4,5,5-tetramethyl-1,3,2-dioxaborolan-2-yl)propyl)-1H-pyrazole-3-sulfonamide] are less than 1 µM and more than 10 µM.
Taken in the same sequence, the figures for `COc1cc(-c2ccc3c(c2NC(=O)NS(=O)(=O)c2ccn(CCCB(O)O)n2)CCC3)ccn1` [Example 69, (3-(3-(N-((5-(2-methoxypyridin-4-yl)-2,3-dihydro-1H-inden-4-yl)carbamoyl)sulfamoyl)-1H-pyrazol-1-yl)propyl)boronic acid] were less than 1 µM and more than 10 µM.
On the same counts, the results for `O=C(Nc1c2c(cc3c1CCC3)CCC2)NS(=O)(=O)C1CCN(CCCB(O)O)CC1` [Example 72, (3-(4-(N-((1,2,3,5,6,7-hexahydro-s-indacen-4-yl)carbamoyl)sulfamoyl)piperidin-1-yl)propyl)boronic acid] are 1 to 10 µM and more than 10 µM.
Take `CC(CB(O)O)Cn1ccc(S(=O)(=O)NC(=O)Nc2c3c(cc4c2CCC4)CCC3)n1` (stereo not shown) [Example 65, (3-(3-(N-((1,2,3,5,6,7-hexahydro-s-indacen-4-yl)carbamoyl)sulfamoyl)-1H-pyrazol-1-yl)-2-methylpropyl)boronic acid]: the concentration giving a half-maximal response (EC50) in the data set with IL-1β was less than 1 µM. Besides, in data set [1], the CC50 at 72 h is more than 10 µM.
Taken in the same sequence, the figures for `O=C(Nc1c2c(cc3c1CCC3)CCC2)NS(=O)(=O)C1(CCCB(O)O)CC1` [Example 71, (3-(1-(N-((1,2,3,5,6,7-hexahydro-s-indacen-4-yl)carbamoyl)sulfamoyl)cyclopropyl)propyl)boronic acid] were 1 to 10 µM and more than 10 µM.
Taken in the same sequence, the figures for `O=C(Nc1c2c(cc3c1CCC3)CCC2)NS(=O)(=O)c1ccn(CCCB(O)O)n1` [Example 63, (3-(3-(N-((1,2,3,5,6,7-hexahydro-s-indacen-4-yl)carbamoyl)sulfamoyl)-1H-pyrazol-1-yl)propyl)boronic acid] were less than 1 µM and more than 10 µM.
Regarding `CC1(C)OB(CCCN2CC(S(=O)(=O)NC(=O)Nc3c4c(cc5c3CCC5)CCC4)C2)OC1(C)C` [Example 73, N-((1,2,3,5,6,7-hexahydro-s-indacen-4-yl)carbamoyl)-1-(3-(4,4,5,5-tetramethyl-1,3,2-dioxaborolan-2-yl)propyl)azetidine-3-sulfonamide], in the data set on IL-1β, the EC50 is less than 1 µM. For the same compound, the CC50 at 72 h in data set [1] was more than 10 µM.
The compound `CC(CB1OC(C)(C)C(C)(C)O1)Cn1ccc(S(=O)(=O)NC(=O)Nc2c3c(cc4c2CCC4)CCC3)n1` (stereo not shown) [Example 64, N-((1,2,3,5,6,7-hexahydro-s-indacen-4-yl)carbamoyl)-1-(2-methyl-3-(4,4,5,5-tetramethyl-1,3,2-dioxaborolan-2-yl)propyl)-1H-pyrazole-3-sulfonamide] yielded an EC50 with IL-1β of less than 1 µM. In addition, the cytotoxic concentration (CC50) at 72 h in data set [1] is more than 10 µM.
Take `Cc1ccc(S(=O)(=O)NC(=O)Nc2c(C(C)C)cccc2C(C)C)cc1B1OC(C)(C)C(C)(C)O1` [Example 6, N-((2,6-diisopropylphenyl)carbamoyl)-4-methyl-3-(4,4,5,5-tetramethyl-1,3,2-dioxaborolan-2-yl)benzenesulfonamide]: the half-maximal effective concentration (EC50) in the data set with IL-1β was in the range of 1 to 10 µM. Further, the cytotoxic concentration (CC50) at 72 h in data set [2] was more than 10 µM.
Taken in the same sequence, the figures for `COc1ccc(S(=O)(=O)NC(=O)Nc2c3c(cc4c2CCC4)CCC3)cc1CB(O)O` [Example 39, (5-(N-((1,2,3,5,6,7-hexahydro-s-indacen-4-yl)carbamoyl)sulfamoyl)-2-methoxybenzyl)boronic acid] were 1 to 10 µM and more than 10 µM.
In the data set with IL-1β, `CC(C)n1cc(S(=O)(=O)NC(=O)Nc2cc(B(O)O)ccc2C2CC2)cn1` [Example 21, (4-cyclopropyl-3-(3-((1-isopropyl-1H-pyrazol-4-yl)sulfonyl)ureido)phenyl)boronic acid] gave a 50% effective concentration (EC50) of more than 10 µM. In data set [2], the CC50 at 72 h was in the range of 1 to 10 µM.
As for `CC(C)c1cccc(C(C)C)c1NC(=O)NS(=O)(=O)c1ccccc1B(O)O` [Example 11, (2-(N-((2,6-diisopropylphenyl)carbamoyl)sulfamoyl)phenyl)boronic acid], the 50% effective concentration (EC50) in the data set on IL-1β is more than 10 µM. In addition, the CC50 at 72 h in data set [2] is more than 10 µM.
In the data set on IL-1β, `O=C(Nc1c2c(cc3c1CCC3)CCC2)NS(=O)(=O)c1ccc2c(c1)COB2O` [Example 29, N-((1,2,3,5,6,7-hexahydro-s-indacen-4-yl)carbamoyl)-1-hydroxy-1,3-dihydrobenzo[c][1,2]oxaborole-5-sulfonamide] registered a concentration giving a half-maximal response (EC50) of less than 1 µM. In data set [2], the CC50 at 72 h is more than 10 µM.
On the same counts, the results for `CC(C)n1cc(S(=O)(=O)NC(=O)Nc2cc(B(O)O)ccc2C(C)(C)C)cn1` [Example 23, (4-(tert-butyl)-3-(3-((1-isopropyl-1H-pyrazol-4-yl)sulfonyl)ureido)phenyl)boronic acid] are more than 10 µM and more than 10 µM.
Taken in the same sequence, the figures for `CC(C)n1cc(S(=O)(=O)NC(=O)Nc2cc(B3OC(C)(C)C(C)(C)O3)ccc2C(C)(C)C)cn1` [Example 22, N-((2-(tert-butyl)-5-(4,4,5,5-tetramethyl-1,3,2-dioxaborolan-2-yl)phenyl)carbamoyl)-1-isopropyl-1H-pyrazole-4-sulfonamide] were more than 10 µM and more than 10 µM.
On the same counts, the results for `CC(C)c1cccc(C(C)C)c1NC(=O)NS(=O)(=O)c1ccc(B(O)O)cc1` [Example 3, (4-(N-((2,6-diisopropylphenyl)carbamoyl)sulfamoyl)phenyl)boronic acid] are 1 to 10 µM and more than 10 µM.
